Here are results for 20 compounds from ChEMBL document CHEMBL1140026 (Bioorg Med Chem Lett, 2007).

pIC50: −log10 of the molar value.

The experiment addresses cGMP-specific 3',5'-cyclic phosphodiesterase (Homo sapiens, UniProt O76074). Kind of experiment: Inhibition of PDE5.
Take `CCCOc1ccc(S(=O)(=O)N2CCC(CCC(=O)O)CC2)cc1-c1nc2c(CCC)nn(C)c2c(=O)[nH]1`: the pIC50 (in general, the IC50 on a negative log10 scale, so that one unit is a factor of ten) was 10.30.
The compound `CCCc1nn(C)c2c(=O)[nH]c(-c3cc(S(=O)(=O)N4CCN(C)CC4)cc4c3OCC4)nc12` had a pIC50 of 6.62.
Under `CCCc1nn(C)c2c(=O)[nH]c(-c3cc(S(=O)(=O)N4CCN(C)CC4)cc4c3OCCO4)nc12` stands 8.10; under `CCCc1nn(C)c2c(=O)[nH]c(-c3cc(S(=O)(=O)N4CCN(CCO)CC4)cc4c3OCC4)nc12`, 6.69; under `CCCc1nn(C)c2c(=O)[nH]c(-c3cc(S(=O)(=O)N4CCN(CCO)CC4)cc4c3OCO4)nc12`, 6.48.
Under `CCCc1nn(C)c2c(=O)[nH]c(-c3cc(S(=O)(=O)N4CCN(CCO)CC4)cc4c3OCCO4)nc12` stands 8.20.
Compound `CCCc1nn(C)c2c(=O)[nH]c(-c3cc(S(=O)(=O)N4CCC(C(=O)O)CC4)ccc3OCC)nc12` showed a pIC50 of 9.29.
Under `CCCc1nn(C)c2c(=O)[nH]c(-c3cc(S(=O)(=O)N4CCC(CC(=O)O)CC4)ccc3OCC)nc12` stands 9.48.
In turn, `CCCOc1ccc(NC(=O)CCC)cc1-c1nc2c(CCC)nn(C)c2c(=O)[nH]1` gave a pIC50 of 9.57.
`CCCc1nn(C)c2c(=O)[nH]c(-c3cc(S(=O)(=O)N4CCN(CCC(=O)O)CC4)ccc3OCC)nc12` gave a pIC50 of 9.39.
The compound `CCCOc1ccc(NC(=O)C(C)C)cc1-c1nc2c(CCC)nn(C)c2c(=O)[nH]1` gave a pIC50 of 9.46.
For the compound `CCCOc1ccc(S(=O)(=O)N2CCC(CC(=O)O)CC2)cc1-c1nc2c(CCC)nn(C)c2c(=O)[nH]1`, the pIC50 is 9.96.
To `CCCOc1ccc(NC(C)=O)cc1-c1nc2c(CCC)nn(C)c2c(=O)[nH]1` belongs 9.09; to `CCCc1nn(C)c2c(=O)[nH]c(-c3cc(S(=O)(=O)N4CCC(CCCC(=O)O)CC4)ccc3OCC)nc12`, 9.66.
Turning to `CCCc1nn(C)c2c(=O)[nH]c(-c3cc(S(=O)(=O)N4CCC(CCC(=O)O)CC4)ccc3OCC)nc12`, the pIC50 is 9.82.
Regarding `CCCOc1ccc(NC(=O)CC)cc1-c1nc2c(CCC)nn(C)c2c(=O)[nH]1`, the pIC50 was 9.42.
In the case of `CCCOc1ccc(S(=O)(=O)N2CCC(C(=O)O)CC2)cc1-c1nc2c(CCC)nn(C)c2c(=O)[nH]1`, the pIC50 is 9.82.
For the compound `CCCOc1ccc(S(=O)(=O)N2CCC(CCCC(=O)O)CC2)cc1-c1nc2c(CCC)nn(C)c2c(=O)[nH]1`, the pIC50 was 9.30.
Under `CCCOc1ccc(NC(=O)C2CCCCC2)cc1-c1nc2c(CCC)nn(C)c2c(=O)[nH]1` stands 9.38; under `CCCc1nn(C)c2c(=O)[nH]c(-c3cc(S(=O)(=O)N4CCN(CCO)CC4)cc4c3OCCC4)nc12`, 7.90.
